Biological target: T1, KCC2 (Monodelphis domestica, UniProt F6WQ48)
T1 construct: gene SLC12A5; N-terminal His and FLAG tag
T1 sequence (F6WQ48 1-1115): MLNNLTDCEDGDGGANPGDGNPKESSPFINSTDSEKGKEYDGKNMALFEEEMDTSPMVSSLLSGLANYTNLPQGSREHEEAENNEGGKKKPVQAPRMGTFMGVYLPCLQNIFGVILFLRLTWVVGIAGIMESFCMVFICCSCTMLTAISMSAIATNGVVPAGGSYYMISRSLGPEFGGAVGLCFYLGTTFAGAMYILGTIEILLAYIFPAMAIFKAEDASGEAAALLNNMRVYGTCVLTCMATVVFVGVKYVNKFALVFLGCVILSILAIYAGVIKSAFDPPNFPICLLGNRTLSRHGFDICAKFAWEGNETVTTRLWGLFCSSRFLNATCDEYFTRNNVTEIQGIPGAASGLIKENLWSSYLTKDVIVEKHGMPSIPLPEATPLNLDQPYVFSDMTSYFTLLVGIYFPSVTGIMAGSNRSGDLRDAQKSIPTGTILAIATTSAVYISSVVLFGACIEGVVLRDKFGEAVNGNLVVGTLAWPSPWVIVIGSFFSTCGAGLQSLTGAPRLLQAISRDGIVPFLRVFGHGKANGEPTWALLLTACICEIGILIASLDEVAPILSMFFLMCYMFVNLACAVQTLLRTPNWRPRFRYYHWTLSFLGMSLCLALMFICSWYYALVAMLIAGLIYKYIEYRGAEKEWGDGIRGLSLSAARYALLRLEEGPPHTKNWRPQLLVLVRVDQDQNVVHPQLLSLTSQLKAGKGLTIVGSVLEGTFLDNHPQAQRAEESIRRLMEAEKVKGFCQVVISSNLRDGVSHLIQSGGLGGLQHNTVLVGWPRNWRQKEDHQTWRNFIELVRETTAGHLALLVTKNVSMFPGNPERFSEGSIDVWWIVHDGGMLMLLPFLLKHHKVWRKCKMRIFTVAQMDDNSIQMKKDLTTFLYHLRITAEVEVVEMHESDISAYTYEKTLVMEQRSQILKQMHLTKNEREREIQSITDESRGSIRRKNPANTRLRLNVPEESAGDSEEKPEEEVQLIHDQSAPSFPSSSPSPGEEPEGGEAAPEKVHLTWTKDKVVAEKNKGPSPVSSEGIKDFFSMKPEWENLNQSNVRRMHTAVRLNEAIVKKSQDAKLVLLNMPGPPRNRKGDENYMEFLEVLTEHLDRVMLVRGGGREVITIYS
Assay: SPR steady-state affinity on covalently immobilized KCC2
Format: binding

- Kd: 750 ± 250 nM
SMILES: Cc1csc(N(C(=O)CSc2ccc(-c3ccccc3)nn2)C2CC2)n1 [VU0463271]
